According to US12629415B2, “Vaccine adjuvants” (THE PROVOST, FELLOWS, FOUNDATION SCHOLARS, AND THE OTHER …, priority 2018, dated 2026):
“Also recorded” adds a separate entry of the source.

Tests used:
[1] = system: adult PBMCs or neonatal CBMCs; test: HEK-Blue IFNα/β SEAP assay on supernatants of stimulated mononuclear cells; type: cell-based, human
Method: Isolation of mononuclear cells and monocytes—Primary PBMCs or CBMCs were isolated from healthy human blood or cord blood. Monocytes were isolated by negative selection using Monocyte Isolation Kit II (Miltenyi). […] Cells were cultured at 37° C., 5% CO2, 95% air in RPMI-1640, with stable 2.5 mM L-glutamine and 0.5 mM sodium pyruvate with 10% FBS (all from Sigma-Aldrich).
(§1) Poly(I:C) (5 μg/ml) (Invivogen), Poly(dA:dT) (5 μg/ml) (Sigma-Aldrich), 2′3′ cGAMP (10 μg/ml), 5′ triphosphate double stranded RNA (5′ ppp dsRNA) (2.5 μg/ml) and HSV-60 (2 μg/ml) (all from Invivogen) were transfected into PBMCs or CBMCs using TransIT-X2 (Mirus).
(§2) Measurement of cytokines—HEK Blue TNFα/IFNα/β Assays were performed as per the manufacturer's (Invivogen) instructions using Quanti-Blue Detection Reagent. SEAP levels were determined using a spectrophotometer plate reader at 630 nm. IFNα (3425-1H-6, Mabtech) and IP-10 (DY266, R&D Systems) were detected by sandwich ELISA. IFNα ELISA used pan specific IFNα antibodies, which allows detection of IFNα subtypes 1/13, 2, 4, 5, 6, 7, 8, 10, 14, 16 and 17. BioLegend LEGENDplex™ Human Inflammation Panel (13-plex) was carried out as per manufacturer's (Biolegend) instructions to determine levels of IFNγ, IL-10, IL-12p70 and IL-23. A BD LSR Fortessa cell analyser was used to acquire samples and BioLegend LEGENDplex™ software was used for analysis.

PBMCs or CBMCs [2] = test: IFNα sandwich ELISA on supernatants; type: cell-based, human; details: CBMCs compared with PBMCs; 8 or 24 h
Method: as §1, §2

PBMCs or CBMCs [3] = test: CXCL10 (IP-10) ELISA; type: cell-based, human; details: CBMCs compared with PBMCs
Method: as §1, §2

bovine PBMCs [4] = test: Western blot of pro-IL-1β in bovine PBMC lysates; type: cell-based, cattle
Method: Supernatants were collected after 24 hours and IL-1β was detected by ELISA. Human PBMCs were stimulated for 24 hours with polydA:dT (5 μg/ml, 2 μg/ml or 1 μg/ml) or alum (50 μg/ml) alone or with LPS (100 pg/ml) (C & D). Supernatants were collected and IL-1β was detected by ELISA. […] Cell lysates were harvested and pro-IL-1β was detected by western blot. PBMCs were stimulated with media or polydA:dT (1 μg/ml) for 6 hours. Cells were lysed and RNA was harvested and used for analysis by RT-PCR (F). Results are mean+/− SEM for 6 calves tested individually in triplicate. For human analysis, results are mean+/− SEM for 6 humans tested individually in triplicate The PPIA gene was used for normalization of gene expression.

PBMCs or CBMCs [5] = test: HEK-Blue TNFα assay on supernatants; type: cell-based, human; details: CBMCs compared with PBMCs; 4, 8 or 24 hours
Method: as §1, §2

bovine PBMCs [6] = test: Bovine IL-1β ELISA on stimulated PBMCs; type: cell-based, cattle; details: for IL-1β secretion by bovine PBMCs in the absence of LPS priming: polydA:dT 5, 2 or 1 μg/ml or alum 50 μg/ml
Method: Bovine peripheral blood mononuclear cells were isolated from whole blood samples collected in 9m1 vacutainers containing Heparin anticoagulant. PBMCs were spun and separated using leucosep tubes (Cruinn) and a density gradient histopaque 1077 (Sigma-Aldrich) at a speed of 1200 g for 20 minutes. Red blood cell contamination was eliminated using sterile 0.25% sodium chloride (Baxter) as a lysis buffer. The cells were subsequently washed twice in PBS at a speed of 600 g for 10 minutes to remove impurities.
Cells were counted using a haemocytometer, microscope and trypan blue (Sigma Aldrich) and seeded at appropriate densities in tissue culture plates (Cruinn) containing media. The cells were incubated at 37° C. at 5% CO2 treated within hours of plating to avoid unwanted cell death.
[…] This concentration was selected after testing effects of a range of different LPS concentrations ranging from 1 pg/ml-1 μg/ml. […] Similar to LPS, adjuvant concentrations were selected after testing multiple different doses. After stimulation, the cells were cultured for an additional 24 hours. Supernatants were harvested and stored at −20° C. for further analysis.
Capture antibodies (50 μl/well), diluted in the appropriate buffers, were dispensed into the wells of high binding plates (Greiner Bio-One) and incubated overnight at room temperature or 4° C. For analysis of IL-17, the ELISA plates were pre-coated with capture antibody by the manufacturing before delivery. The wells were washed with PBS/Tween 3 times and the plates were then incubated with 150 μl of blocking buffer for 1 hour at room temperature. The plates were washed again before supernatant (neat or diluted) and recombinant standards were added for 1 hour at room temperature. Following this, the plates were washed and 50 μl of detection antibody was added to the wells for a period of 1 or 2 hours at room temperature. After washing, 50 μl diluted streptavidin-HRP was added to the plate for between 30 minutes and 1 hour. After the final wash, 50 μl of 3,3′-, 5,5′-Tetramethylbenzidine (TMB) substrate was added and the plates were incubated in the dark. The reaction was stopped by addition of 1M sulphuric acid and the absorbance readings were measured at 450 nm using a microtitre plate reader. The cytokine concentrations were calculated using a linear regression standard curve from recombinant cytokines of known concentration. Skanit™ software was used to estimate values.

Human PBMCs = test: IL-1β ELISA on stimulated human PBMCs; type: cell-based; details: with or without LPS 100 pg/ml priming; 24 hours
Method: Supernatants were collected after 24 hours and IL-1β was detected by ELISA. Human PBMCs were stimulated for 24 hours with polydA:dT (5 μg/ml, 2 μg/ml or 1 μg/ml) or alum (50 μg/ml) alone or with LPS (100 pg/ml) (C & D). Supernatants were collected and IL-1β was detected by ELISA. Bovine PBMCs were cultured with polydA:dT (1 μg/ml) with or without LPS (100 pg/ml) for 16 hours (E). Cell lysates were harvested and pro-IL-1β was detected by western blot. PBMCs were stimulated with media or polydA:dT (1 μg/ml) for 6 hours. Cells were lysed and RNA was harvested and used for analysis by RT-PCR (F). Results are mean+/− SEM for 6 calves tested individually in triplicate. For human analysis, results are mean+/− SEM for 6 humans tested individually in triplicate The PPIA gene was used for normalization of gene expression.

## poly(deoxyadenylic-thymidylic) acid [Poly(dA:dT)]
[1]; compared with adult blood, summary statement
  innate immune response in neonatal and/or paediatric blood: robust innate immune response in neonatal and/or paediatric blood
[1]; neonatal CBMCs compared with adult PBMCs, stimulation 4, 8 or 24 h
  type I IFN (IFNα/β) production: no inhibition of type I IFN production in CBMCs when compared to PBMCs
PBMCs or CBMCs [2]
  IFNα secretion (ELISA): equivalent or enhanced CNA sensor responses in neonates compared to adults
PBMCs or CBMCs [3]
  CXCL10 protein secretion: no significant difference in the CXCL10 response between PBMCs or CBMCs
Bovine PBMCs [4]; 6 hours, data not shown
  pro-IL-1β expression: enhances pro-IL-1β expression after 6 hours
Bovine PBMCs [4]; 16 hours, with or without LPS 100 pg/ml
  pro-IL-1β (western blot): pro-IL-1β was evidently expressed in cells stimulated with polydA:dT in the absence of LPS
PBMCs or CBMCs [5]
  TNFα production: significantly more TNFα production from neonatal cells than from adult cells
Bovine PBMCs [6]
  IL-1β secretion by bovine cells (priming not given): enhanced by polydA:dT; also recorded: enhanced IL-1β secretion from bovine cells; also recorded: enhances IL-1β secretion in a NLRP3 independent manner; also recorded: robust driver of IL-1β secretion and IL-18 expression in cattle
Bovine PBMCs [6]; 5 neonatal calves, 24 hours
  IL-1β secretion by PBMCs from 1 month old calves following LPS priming: PBMCs from all 5 neonates secreted IL-1β
  IL-1β secretion by PBMCs from neonatal (1 month old) calves in the absence of LPS priming: can secrete IL-1β in response to polydA:dT without LPS priming; also recorded: secreted processed IL-1β following polydA:dT stimulation
Bovine PBMCs [6]; LPS 100 pg/ml, polydA:dT 5, 2 or 1 μg/ml, 24 hours
  IL-1β secretion by bovine PBMCs primed with LPS: secreted IL-1β when stimulated with polydA:dT at various concentrations
Bovine PBMCs [6]; absence or presence of LPS, 24 hours
  IL-1β secretion by PBMCs from calves at 2 months of age: processed IL-1β was present in supernatants
Bovine PBMCs [6]; bovine PBMCs, 24 hours
  IL-1β concentrations, presence versus absence of LPS: no significant difference in IL-1β concentrations
Bovine PBMCs [6]; 24 hours, listed as PolydA:dT
  IL-1β secretion by bovine PBMCs in the absence of LPS priming: capable of driving IL-1β secretion in the absence of priming with LPS
Bovine PBMCs [6]; 24 hours, listed as polydA:dT
  IL-1β secretion by bovine PBMCs in the absence of LPS priming: all calves secreted processed IL-1β
Human PBMCs
  IL-1β secretion by human PBMCs: only cells primed with LPS 3 h prior to transfection with polydA:dT secreted processed IL-1β; also recorded: human PBMCS did not secrete processed IL-1β
